{"source": "paper PMC12549899", "about": "(Nature Communications, 2025)", "molecular_target": "T1, DrOTOP1 E384A (Danio rerio, UniProt Q7ZWK8, E384A)", "T1 construct": "A previously generated codon-optimized full-length DrOTOP1[8]; (UniProt: Q7ZWK8) construct; expressed in transfected cells; host or cells: HEK-293 (CRL-1573, ATCC)", "T1 sequence (Q7ZWK8 1-586 E384A)": "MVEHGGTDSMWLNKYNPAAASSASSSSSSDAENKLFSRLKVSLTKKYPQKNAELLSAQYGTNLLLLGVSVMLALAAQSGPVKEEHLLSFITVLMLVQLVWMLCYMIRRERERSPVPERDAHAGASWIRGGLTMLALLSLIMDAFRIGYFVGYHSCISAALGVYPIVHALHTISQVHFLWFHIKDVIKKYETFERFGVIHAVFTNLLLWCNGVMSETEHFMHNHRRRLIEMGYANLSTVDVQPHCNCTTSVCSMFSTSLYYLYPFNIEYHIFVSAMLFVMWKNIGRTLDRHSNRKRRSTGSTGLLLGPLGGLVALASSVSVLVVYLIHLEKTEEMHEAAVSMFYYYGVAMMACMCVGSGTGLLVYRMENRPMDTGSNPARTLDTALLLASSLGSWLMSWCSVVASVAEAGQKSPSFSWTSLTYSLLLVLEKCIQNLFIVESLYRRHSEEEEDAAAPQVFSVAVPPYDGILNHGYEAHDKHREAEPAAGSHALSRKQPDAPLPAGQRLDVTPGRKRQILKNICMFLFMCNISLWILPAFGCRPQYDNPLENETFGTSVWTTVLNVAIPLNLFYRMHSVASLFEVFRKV", "assay": "Whole-cell patch-clamp, inhibition of acid-evoked currents, DrOTOP1 E384A (central site)", "assay_type": "cell-based, zebrafish (Danio rerio)", "text": "To functionally test the significance of the two binding sites identified by cryo-EM, we generated point mutations of DrOTOP1 using the binding poses and conformational changes observed in DrOTOP1_C2.2 to guide our mutations. As per the binding pose that best fits our cryo-EM density, C2.2 forms the following interactions in the outer site: hydrophobic packing against many non-polar residues W126, G130, M133, L134, F271, F570, and M573, and π-stacking with W532 (Fig. 5A). In addition, C2.2 could potentially form H-bonds with E267, if the sidechain is protonated or a water bridge is present, and with H574 if it moves closer (Fig. 5A). Likewise, C2.36 presents a heterocyclic nitrogen that can potentially form a H-bond with E267, similarly, provided a protonation or water bridge is present (Fig. 5B). In addition, C2.36 forms a T-shaped π-stacking interaction with H574, whose sidechain has rotated 90 degrees (compared to DrOTOP1_apo), presumably to accommodate the interaction (Fig. 5B). Considering other inhibitors discovered from the second round of screening, many contain functional groups like the carbonyl groups of Group 1 molecules and the heterocyclic nitrogen atoms of Group 2 molecules (Supplementary Fig. 3E), that can potentially form similar H-bonds with E267 as C2.2 and C2.36, assuming the binding modes are similar. In the central site, C2.2 binds with the following interactions: hydrophobic packing with residues V201, F271, A274, V278, and A388, π-stacking with F277, and H-bonding with E384 (Fig. 5C).\nWe next tested mutations of the central site (L205W, A274W, F277A, E384A L385W, A388W). V201W and S389W, two additional central site mutations, were excluded from the study due to complete loss of channel activity. Mutation of E384 to alanine is expected to disrupt potential hydrogen bonding with C2.2. Of note, E384 is one of the few charged residues in the central pocket and could form a salt bridge with K281, that could also be affected by the mutation. Additionally, in our DrOTOP1_C2.2 structure, we observed that F277 underwent a substantial rearrangement, likely to avoid steric clash and accommodate C2.2 binding. Thus, we introduced the F277A mutation to test if removing this steric clash would enhance C2.2 inhibition.\nHEK-293 cells (CRL-1573, ATCC) were cultured in DMEM (Thermofisher 11995073) containing 10% fetal bovine serum (Life Technology 16000044) and Penicillin-Streptomycin (100 I.U./mL) and (100 µg/mL), respectively. Cells were transfected with WT DrOTOP1 or mutant DrOTOP1 channels in 35 mm petri dishes, with ~ 500 ng DNA and 2 μL TransIT-LT1 transfection reagent (Mirus Bio Corporation, Cat # MIR2300) following the manufacturer’s protocol. All constructs were subcloned into a pcDNA3.1 vector that adds an N-terminal fusion tag consisting of an octahistidine tag followed by eGFP, a Gly-Thr-Gly-Thr linker and a 3C protease cleavage site ([…]) followed by WT DrOTOP1, WT mOTOP1, WT hOTOP1, or mutated DrOTOP1. Point mutations were generated via In-Fusion Cloning (Takara) using single-stranded DNA primers generated through IDT and sequence confirmed by Sanger sequencing (GeneWiz).\nWhole-cell patch-clamp recording was performed as previously described[6],[22],[25]. Recordings were made with an Axopatch 200B amplifier, digitized with a Digidata 1322a 16-bit data acquisition system, acquired with pClamp 8.2 and analyzed with Clampfit 10 (Molecular Devices). Recordings were sampled at 5 kHz and filtered at 1 kHz. Patch Pipettes with resistance of […] were fabricated from borosilicate glass, and only recordings with a giga-Ohm seal were used in analysis. Membrane potential was held at −80 mV for the duration of recordings. At the beginning of recordings and between, cells were washed with Tyrode’s solution (see below). […]"}
{"smiles": "C=C(C)COc1ccccc1NC(=O)c1nc[nH]c1C", "note": "[C2.2]", "values": [{"measurement": "Hill coefficient", "result": 1.184}, {"measurement": "inhibition at 3 µM", "setting": "3 µM, single cells", "result": 10.2, "unit": "%"}, {"measurement": "inhibition at 10 µM", "setting": "10 µM, single cells or mean", "result": "~40", "unit": "%"}, {"measurement": "inhibition at 30 µM", "setting": "30 µM, single cells", "result": 70.7, "unit": "%"}, {"measurement": "inhibition at 100 µM", "setting": "100 µM, single cells", "result": 96.3, "unit": "%"}, {"measurement": "inhibition at 300 µM", "setting": "300 µM, single cells", "result": 97.3, "unit": "%"}, {"measurement": "IC50", "setting": "pH 5.5", "result": 15.3, "unit": "µM"}]}
